Measured values from patent US12486219B2, “Modified tetracyclines for treatment of alcohol use disorder, pain and other disorders involving potential inflammatory processes” (Texas Tech University System, priority 2018, dated 2025).

Columns and labels:
[1] = system: binge ethanol consumption; experiment: Binge ethanol consumption, minocycline derivatives (FIGS. 8C to 15C); assay type: in vivo; conditions: figure legend only, values not given
[2] = system: AUD traits; conditions: seven tetracyclines tested; cited from earlier work
[3] = system: E. coli; experiment: E. coli zone of inhibition (ZOI) and recovered colony forming units (CFU) per disk; assay type: cell-based; conditions: dose response
Method: Minocycline and two acetylated derivatives, CMM1 (B) and CMM2 (Y), were tested in a dose response manner for A) zone of inhibition (ZOI) and B) recovered colony forming units (CFU) per disk.

[4] = system: Drinking In the Dark (DID) murine model of binge drinking; experiment: Drinking In the Dark (DID) murine model of binge drinking; assay type: in vivo, mice; conditions: 0, 25, 35, 50 and 100 mg/kg p.o. vs control; n=4/group; p=0.004; dose-dependent
Method: Using a standard Drinking In the Dark (DID) murine model of binge drinking, we tested the effect of 0, 25, 35, 50 and 100 mg/kg per os (p.o.) acetylated minocycline (derivative Y, or CMM1) vs control.

[5] = system: DBA/2J mice; experiment: Alcohol withdrawal, Handling Induced Convulsion scores; assay type: in vivo
Method: Female and male DBA/2J mice were tested with CMM1, 100 mg/kg per p.o., at 2 hrs following 4 g/kg 20% ethanol in saline. Shown are the Handling Induced Convulsion scores, background subtracted and summed over 24 hours. […] Mean±SEM, n=5/group.

[6] = cited from earlier work
[7] = system: DID ethanol consumption; experiment: DID ethanol consumption after "sterilization" of the GI microbiome; assay type: in vivo, mice; conditions: ten-day ampicillin, neomycin, metronidazole, vancomycin; tigecycline 100 mg/kg i.p.; n=7
Method: A ten-day “sterilization” treatment with ampicillin, neomycin, metronidozale and vancomycin was used. Bedding was changed daily to avoid repopulation. DID was started on day 11 after one day of no metronidazole. Tigecycline was given at 100 mg/kg intraperitoneal (i.p.) n=7, mean±SEM.

[8] = system: DID consumption; experiment: DID consumption after intracerebroventricular (ICV) drug; assay type: in vivo, mice; conditions: 3 ul of drug (9 mg/ml) icv 20 hrs prior to DID testing; n=9-11; p<0.01
Method: To test the hypothesis that tigecycline works at the level of the CNS, rather than the PNS, 3 ul of drug (9 mg/ml) was given icy 20 hrs prior to DID testing. n=9-11, mean±SEM, **p<0.01.

With COc1ccc(N(C)C)c2c1C(=O)C1=C(O)C3(O)C(=O)C(C(N)=O)=C(O)C(N(C)C)C3CC1C2 (stereo not shown) [Methyl Ether Minocycline, 4,7-Bis-dimethylamino-3,12,12a-trihydroxy-10-methoxy-1,11-dioxo-1,4,4a,5,5a,6,11,12a-octahydro-naphthacene-2-carboxylic acid amide] the binge ethanol consumption [1] was “reduction of binge ethanol consumption”.
For CCCOc1ccc(N(C)C)c2c1C(=O)C1=C(O)C3(O)C(=O)C(C(N)=O)=C(O)C(N(C)C)C3CC1C2 (stereo not shown) [Propyl Ether Minocycline, 4,7-Bis-dimethylamino-3,12,12a-trihydroxy-1,11-dioxo-10-propoxy-1,4,4a,5,5a,6,11,12a-octahydro-naphthacene-2-carboxylic acid amide], the binge ethanol consumption [1] was “reduction of binge ethanol consumption”.
For C[C@H]1c2cccc(O)c2C(=O)C2=C(O)[C@]3(O)C(=O)C(C(N)=O)=C(O)[C@@H](N(C)C)[C@@H]3[C@@H](O)[C@@H]21 [Doxycycline], the “efficacy against AUD traits” value [2] is listed as “effective”.
For CC(=O)NC(=O)c1c(OC(C)=O)c2c(c(N(C)C)c1OC(C)=O)CC1Cc3c(N(C)C)ccc(OC(C)=O)c3C(=O)C1=C2OC(C)=O (stereo not shown) [CMM1], the “antibiotic activity (ZOI and CFU per disk)” value [3] was “loss of antibiotic activity even at high doses”, the “ethanol consumption (DID)” value [4] was “significantly reduced drinking” and the “alcohol withdrawal symptoms (Handling Induced Convulsion scores summed over 24 hours)” value ([5]; 100 mg/kg p.o. at 2 hrs following 4 g/kg 20% ethanol, female and male DBA/2J mice, n=5/group) was “reduced alcohol withdrawal symptoms”. The “efficacy on withdrawal compared with minocycline” value ([5]; 100 mg/kg p.o., DBA/2J mice) was “more effective than the parent drug, minocycline” and the “efficacy on withdrawal, females vs males” value ([5]; 100 mg/kg p.o., DBA/2J mice) was “more effective in females”.
In the case of CCCCOc1ccc(N(C)C)c2c1C(=O)C1=C(O)C3(O)C(=O)C(C(N)=O)=C(O)C(N(C)C)C3CC1C2 (stereo not shown) [Butyl Ether Minocycline, 10-Butoxy-4,7-bis-dimethylamino-3,12,12a-trihydroxy-1,11-dioxo-1,4,4a,5,5a,6,11,12a-octahydro-naphthacene-2-carboxylic acid amide], the binge ethanol consumption [1] is reported as “reduction of binge ethanol consumption”.
For CCOc1ccc(N(C)C)c2c1C(=O)C1=C(O)C3(O)C(=O)C(C(N)=O)=C(O)C(N(C)C)C3CC1C2 (stereo not shown) [Ethyl Ether Minocycline, 4,7-Bis-dimethylamino-10-ethoxy-3,12,12a-trihydroxy-1,11-dioxo-1,4,4a,5,5a,6,11,12a-octahydro-naphthacene-2-carboxylic acid amide], the binge ethanol consumption [1] was “reduction of binge ethanol consumption”.
In the case of CC(=O)NC(=O)c1c(OC(C)=O)c2c(c(N(C)C)c1OC(C)=O)CC1Cc3c(N(C)C)ccc(OC(C)=O)c3C(=O)C1=C2O (stereo not shown) [CMM2], the “antibiotic activity (ZOI and CFU per disk)” value [3] is reported as “loss of antibiotic activity even at high doses”.
In the case of CC(=O)NC(=O)c1c(OC(C)=O)c2c(c(N(C)C)c1OC(C)=O)CC1Cc3c(N(C)C)ccc(OC(C)=O)c3C(=O)C1=C2OC(C)=O (stereo not shown) [Penta Acetyl Minocycline, Acetic acid 3,10,12-triacetoxy-2-acetylcarbamoyl-4,7-bis-dimethylamino-11-oxo-5,5a,6,11-tetrahydro-naphthacen-1-yl ester], the binge ethanol consumption [1] is reported as “reduction of binge ethanol consumption”.
With CC(=O)NC(=O)c1c(OC(C)=O)c2c(c(N(C)C)c1OC(C)=O)CC1Cc3c(N(C)C)ccc(OC(C)=O)c3C(=O)C1=C2O (stereo not shown) [Tetra Acetyl Minocycline, Acetic acid 3,10-diacetoxy-2-acetylcarbamoyl-4,7-bis-dimethylamino-12-hydroxy-11-oxo-5,5a,6,11-tetrahydro-naphthacen-1-yl ester] the binge ethanol consumption [1] was “reduction of binge ethanol consumption”.
For CN(C)[C@@H]1C(O)=C(C(N)=O)C(=O)[C@@]2(O)C(O)=C3C(=O)c4c(O)cccc4[C@@](C)(O)[C@H]3[C@H](O)[C@@H]12 [Oxytetracycline], the LogD [6] is given as −4.25 and the LogP [6] is given as −1.5.
In the case of CC(=O)NC(=O)c1c(O)cc2c(c1O)C(O)=C1C(=O)c3c(OC(C)=O)ccc(N(C)C)c3CC1C2 (stereo not shown) [De Methyl Diacetate Minocycline, Acetic acid 9-acetylcarbamoyl-4-dimethylamino-8,10,11-trihydroxy-12-oxo-5,5a,6,12-tetrahydro-naphthacen-1-yl ester], the binge ethanol consumption [1] is reported as “reduction of binge ethanol consumption”.
In the case of CN(C)c1cc(NC(=O)CNC(C)(C)C)c(O)c2c1C[C@H]1C[C@H]3[C@H](N(C)C)C(O)=C(C(N)=O)C(=O)[C@@]3(O)C(O)=C1C2=O [Tigecycline], the “DID ethanol consumption / tigecycline efficacy, sterilized vs not” value [7] is given as “No significant difference”, the DID consumption [8] is given as “reduced DID consumption” and the “efficacy against AUD traits” value [2] is given as “effective”.
With COc1ccc(N(C)C)c2c1C(=O)C1=C(O)c3c(O)c(C(=O)NC(C)=O)c(O)c(N(C)C)c3CC1C2 (stereo not shown) [Methyl Ether N-Monoacetate Minocycline, 4,7-Bis-dimethylamino-1,3,12-trihydroxy-10-methoxy-11-oxo-5,5a,6,11-tetrahydro-naphthacene-2-carboxylic acid acetyl-amide] the binge ethanol consumption [1] was “reduction of binge ethanol consumption”.
For CN(C)c1ccc(O)c2c1CC1CC3C(N(C)C)C(O)=C(C(N)=O)C(=O)C3(O)C(O)=C1C2=O (stereo not shown) [Minocycline, 4.7-Bis-dimcthylamino-3,10,12,12a-tctrahydroxy-1,11-dioxo-1,4.4a,5,5a,6,11,12 a-octahydro-naphthacene-2-carboxylic acid amide], the “efficacy against AUD traits” value [2] is given as “effective”.
For COc1ccc(N(C)C)c2c1C(=O)C1=C(O)c3c(c(N(C)C)c(OC(C)=O)c(C(=O)NC(C)=O)c3OC(C)=O)CC1C2 (stereo not shown) [Methyl Ether Tri Acetate Minocycline, Acetic acid 4-acetoxy-3-acetylcarbamoyl-1,10-bis-dimethylamino-5-hydroxy-7-methoxy-6-oxo-6,11,11a,12-tetrahydro-naphthacen-2-yl ester], the binge ethanol consumption [1] was “reduction of binge ethanol consumption”.
